Measurements reported in PMC8283942 (Journal of the American Chemical Society, 2021).

Molecular target: SsTyrH (heme-dependent L-tyrosine hydroxylase)
Assay: UV–vis substrate titration
Type: binding, Streptomyces sclerotialus

N[C@@H](Cc1ccc(O)cc1)C(=O)O [Tyr, L-tyrosine]
Kd: 109 ± 5 µM
